In patent EP1125946A1, “Cell adhesion therapy through modulation of a Rap family member or of a GEF (guanine nucleotide exchange factor)” (Universitair Medisch Centrum Utrecht, priority 2000, dated 2001):

Tests used:
Ras = assay: GTP-bound GTPase pull-down with GST-Raf-RBD and immunoblotting in Jurkat cells; format: cell-based; conditions: Jurkat JHMI 2.2 cells, time-course; TPA 100 ng/ml, 5 minutes
Description: (§1) To address which Ras family members, if any, might participate in CD31 signaling, we precipitated endogenous GTPases from lysates of CD31-stimulated Jurkat with GST fusion proteins of Ras family-binding domains (RBDs) of Raf and RalGDS, which bind with high selectivity and specificty to activated Ras and Rap GTPases, respectively (de Rooij and Bos, 1997; Franke et al., 1997). Immunoblotting of precipitated GTPases provides a qualitative representation of GTPase activation status following cell stimulation, corresponding to quantitative changes detected using classical GDP/GTP-binding ratio techniques. […] GTP-bound R-Ras was detected in Raf-RBD pull-downs only following longer exposures of films, reflecting the relatively low levels of R-Ras protein expression in Jurkat. […]
Figure 1. […] Bound GTPases were resolved on SDS-PAGE, transferred to PVDF membrane, and detected by immunoblotting with antibodies against the indicated proteins, followed by enhanced chemiuminescence (ECL). […] JHMI cells were activated for 2 minutes with medium (-), anti-CD3 antibody T3b (1:200) or the indicated anti-CD31 antibodies (10 µg/ml), and Rap1 activation detected as in A. Fold activation of Rap1 compared to untreated cells was obtained by quantitating pixels from representative blots using Adobe Photoshop software. […]

Rap1 = assay: GTP-bound GTPase pull-down with GST-RalGDS-RBD and immunoblotting in Jurkat cells; format: cell-based; conditions: Jurkat JHMI 2.2 cells; TPA 100 ng/ml, 5 minutes
Description: as §1
Figure 1. […] Bound GTPases were resolved on SDS-PAGE, transferred to PVDF membrane, and detected by immunoblotting with antibodies against the indicated proteins, followed by enhanced chemiuminescence (ECL). […] Fold activation of Rap1 compared to untreated cells was obtained by quantitating pixels from representative blots using Adobe Photoshop software. […] CD31 WT, CD31 GPI, and Y663/686F Jurkat cell lines were stimulated for two minutes with medium (-) or 10 µg/ml PECAM 1.3 antibody and activated Rap1 detected as in A. Results shown in each panel are representative of three independent experiments.

[1] = molecular target: catalytic domain of Epac1 (Homo sapiens, UniProt O95398)
Sequence of catalytic domain of Epac1 (O95398 44-371): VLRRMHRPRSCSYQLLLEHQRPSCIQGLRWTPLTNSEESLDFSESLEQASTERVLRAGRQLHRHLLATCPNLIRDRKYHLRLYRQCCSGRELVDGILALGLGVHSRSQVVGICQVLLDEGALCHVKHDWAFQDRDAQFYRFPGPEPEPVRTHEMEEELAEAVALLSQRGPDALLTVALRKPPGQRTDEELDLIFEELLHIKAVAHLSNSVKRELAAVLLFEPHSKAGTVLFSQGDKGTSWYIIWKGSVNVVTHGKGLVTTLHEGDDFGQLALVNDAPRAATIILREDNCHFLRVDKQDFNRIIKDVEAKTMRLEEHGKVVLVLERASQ
Experimental: Next we investigated whether a direct covalent linkage between the catalytic domain and the B-site is essential for this regulation, or whether they can function as separate domains. We therefore isolated the regulatory domains of both Epac1 and Epac2 and incubated them with the corresponding catalytic domains.
For purification of Glutathione S-transferase (GST) -fusion constructs all cDNAs were cloned in pGEX bacterial expression vectors. […] The GST fusion construct of Repac contains amino acids 2-580. The catalytic domain CalDAG-GEFI contains amino acids 3-422. The catalytically active PDZ-GEF1 construct contains amino acids 251-1001. The GST-PKA fusion construct used contained the R1a-subunit of Bovine PKA, lacking amino acids 1-91. Protein production was induced in Bl-21 bacteria using 100 nM IPTG for 20 h at room temperature. After protein production, bacteria were pelleted and lyzed in ice-cold PBS containing 1% Triton-X100 and protease inhibitors. The lysate was sonicated three times for 10 seconds and centrifuged at 10,000 x g to remove insoluble material. […]
Briefly, 100 nM of purified GTPase, loaded with fluorescently labeled 2',3'-bis (O) -N-methylantharanoloyl-guanosinediphosphate(mantGDP), was incubated, in the presence of excess unlabelled GDP, with 50 nM of purified GEF unless indicated differently. Release of mGDP was measured in realtime as a decrease in fluorescence. […]

[2] = molecular target: catalytic domain of Epac2 (Mus musculus, UniProt Q9EQZ6)
Sequence of catalytic domain of Epac2 (Q9EQZ6 478-1011): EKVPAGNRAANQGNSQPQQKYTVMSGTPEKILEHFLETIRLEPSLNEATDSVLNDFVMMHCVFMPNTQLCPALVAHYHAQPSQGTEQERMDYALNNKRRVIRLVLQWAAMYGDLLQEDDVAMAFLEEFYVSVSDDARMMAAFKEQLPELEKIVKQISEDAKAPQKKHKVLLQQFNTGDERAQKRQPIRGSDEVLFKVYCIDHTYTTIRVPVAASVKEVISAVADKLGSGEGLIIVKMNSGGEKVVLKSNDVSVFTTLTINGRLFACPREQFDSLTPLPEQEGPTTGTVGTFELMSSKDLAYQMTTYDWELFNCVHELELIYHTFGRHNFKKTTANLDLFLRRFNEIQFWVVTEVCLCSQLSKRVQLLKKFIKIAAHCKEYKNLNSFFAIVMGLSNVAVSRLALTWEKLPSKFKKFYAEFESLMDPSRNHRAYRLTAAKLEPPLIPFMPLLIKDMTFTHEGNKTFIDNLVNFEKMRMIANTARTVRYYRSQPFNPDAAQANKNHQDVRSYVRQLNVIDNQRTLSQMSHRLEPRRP
Sequence of catalytic domain of Epac2 (Q9EQZ6 1-463 isoform Q9EQZ6-3 partner): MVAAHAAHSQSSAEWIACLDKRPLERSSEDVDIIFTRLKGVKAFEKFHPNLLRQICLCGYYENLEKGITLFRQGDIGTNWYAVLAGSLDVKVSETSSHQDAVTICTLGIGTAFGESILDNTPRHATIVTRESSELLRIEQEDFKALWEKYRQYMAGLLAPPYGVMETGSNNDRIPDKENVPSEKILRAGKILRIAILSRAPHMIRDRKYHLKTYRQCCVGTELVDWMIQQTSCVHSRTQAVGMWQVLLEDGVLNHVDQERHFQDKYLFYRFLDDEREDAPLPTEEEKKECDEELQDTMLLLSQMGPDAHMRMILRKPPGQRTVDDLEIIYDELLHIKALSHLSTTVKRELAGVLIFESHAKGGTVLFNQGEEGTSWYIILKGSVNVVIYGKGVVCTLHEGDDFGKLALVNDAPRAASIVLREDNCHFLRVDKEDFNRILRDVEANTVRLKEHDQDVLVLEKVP
Experimental: We therefore isolated the regulatory domains of both Epac1 and Epac2 and incubated them with the corresponding catalytic domains.
Protein production was induced in Bl-21 bacteria using 100 nM IPTG for 20 h at room temperature. After protein production, bacteria were pelleted and lyzed in ice-cold PBS containing 1% Triton-X100 and protease inhibitors. The lysate was sonicated three times for 10 seconds and centrifuged at 10,000 x g to remove insoluble material. GST-fusion proteins we purified from the cleared lysate by batch-wise incubation with glutathione-agarose beads (Sigma), eluted from the beads in buffer containing 50 mM Tris pH 7.5, 100 mM NaCl, 10% glycerol and 10mM glutathione and dialyzed for 20 hours in the same buffer without glutathione. When indicated, proteins were cleaved from the GST-tag by incubation with thrombin and purified by gelfiltration.
Briefly, 100 nM of purified GTPase, loaded with fluorescently labeled 2',3'-bis (O) -N-methylantharanoloyl-guanosinediphosphate(mantGDP), was incubated, in the presence of excess unlabelled GDP, with 50 nM of purified GEF unless indicated differently. Release of mGDP was measured in realtime as a decrease in fluorescence. To calculate reaction rates, single exponential functions were fit using the program Grafit3.0 (Eritacus). […]

full length CalDAG-GEF 1 = molecular target: T1, full length CalDAG-GEF 1 (Homo sapiens, UniProt Q7LDG7); assay: in vitro activation of Rap1 (mantGDP-loaded) by full length CalDAG-GEF versus mutant lacking the regulatory domain; format: biochemical; conditions: 100 µM calcium added; compared with mutant lacking the regulatory domain
T1 construct: To that end full length CalDAG-GEF 1 and a CalDAG-Gef mutants lacking the regulatory domain was compared
T1 sequence (Q7LDG7 1-609): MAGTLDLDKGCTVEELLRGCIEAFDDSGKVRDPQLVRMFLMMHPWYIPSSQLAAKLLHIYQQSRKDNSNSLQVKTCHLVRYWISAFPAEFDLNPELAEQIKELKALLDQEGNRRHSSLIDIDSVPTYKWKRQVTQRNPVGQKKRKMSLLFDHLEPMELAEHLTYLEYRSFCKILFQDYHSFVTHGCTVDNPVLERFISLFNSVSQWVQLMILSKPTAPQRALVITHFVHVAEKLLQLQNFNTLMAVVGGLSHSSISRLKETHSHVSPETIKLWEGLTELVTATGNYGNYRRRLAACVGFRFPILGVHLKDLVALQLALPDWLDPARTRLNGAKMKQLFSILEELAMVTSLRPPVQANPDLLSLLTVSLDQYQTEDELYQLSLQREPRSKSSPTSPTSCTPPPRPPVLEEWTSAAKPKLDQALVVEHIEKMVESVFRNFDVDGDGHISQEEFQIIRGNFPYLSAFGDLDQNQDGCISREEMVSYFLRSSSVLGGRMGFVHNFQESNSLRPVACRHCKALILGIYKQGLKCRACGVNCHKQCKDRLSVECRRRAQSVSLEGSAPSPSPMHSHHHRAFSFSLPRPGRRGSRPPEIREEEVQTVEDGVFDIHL
Experimental: We therefore investigated whether CalDAG-GEF was regulated by an auto-inhibitory domain. To that end full length CalDAG-GEF 1 and a CalDAG-Gef mutants lacking the regulatory domain was compared for in vitro activation of Rap1.
Figure 9. CalDAG-GEF contains an autoinhibitory domain regulated by calcium. Equal amounts of CalDAG-GEF and mutant CalDAG-GEF lacking the DAG and Ca binding domains were incubayed with mantGDP-loaded Rap1 and incubated in the presence or absence of 100 µM calcium.

LFA-1 = assay: flow cytometry of mAB 24 epitope expression on Jurkat cells; format: cell-based; conditions: Jurkat cells coincubated with mAB 24 and 400 µM MnCl2; relative to unstimulated
Experimental: The anti-aL integrin antibody mAB 24 recognizes a conformation-dependent ligand-induced epitope on LFA-1, and induction of the mAB 24 epitope correlates with increased LFA-1 affinity for ICAM (Dransfield and Hogg, 1989). […] This conformational change can also be induced by LFA-1 exposure to Mn^2+, independently of "inside-out" signalling. […] Incubation of cells with mAB 24 at 4°C abolished CD31 and Mn^2+ -induced mAB 24 expression to background levels (data not shown), consistent with the temperature-sensitivity of the mAB 24 epitope (Dransfield and Hogg, 1989). […]
Flow cytometric analysis of transfected cells was performed by cotransfecting Jurkat JHMI cells with […] pCMV-EGFP C1 plasmid (Promega) and the indicated cDNA constructs. […] Fluorescence intensity of EGFP-transfected cells was determined using a FACsCaliber flow cytometer and CellQuest software (both from Becton Dickinson).
Figure 4. […] Cells were sequentially stained with anti-b2 integrin antibody L15 and rabbit anti-mouse Ig-RPE-Cy5 conjugate, and GFP-expressing cells analysed by flow cytometry. […] Alternatively, unstimulated cells were coincubated with mAB 24 and 400 µM MnCl2 (Mn). mAB 24 expression was assessed by flow cytometry, and expression levels normalized to 1 for unstimulated GFP-alone cells in each experiment. […]

SMILES: CCCCCCCCCCCCCC(=O)O[C@@H]1[C@@H](C)[C@@]2(O)[C@@H](C=C(CO)C[C@]3(O)C(=O)C(C)=C[C@@H]23)[C@@H]2C(C)(C)[C@]12OC(C)=O [TPA]
- activation of Ras (Ras): activated
- activation of Rap1 (Rap1): activated

SMILES: Nc1ncnc2c1ncn2[C@@H]1O[C@@H]2COP(=O)(O)O[C@H]2[C@H]1O [cAMP]
- effect on inhibition of the catalytic domain by the regulatory domain [1]: abolishes the inhibitory effect
- effect on inhibition of the catalytic domain by the regulatory domain [2]: abolishes the inhibitory effect

SMILES: [Ca+2] [calcium]
- efficiency of full length CalDAG-GEF in activating Rap1 (full length CalDAG-GEF 1): became as efficient as the mutant

SMILES: [Cl][Mn][Cl] [Mn^2+, MnCl2]
- increase in mAB 24 expression (LFA-1): 2.25-2.5 fold
